Experiment [1] deals with human monocytic cell line THP-1. The experiment is described as follows: Cytokine production by THP-1 cells after peptide stimulation. The format is cell-based. To be noted: for Cytokine production IL-1β / Cytokine production IL-8 / Cytokine production TNF-α: culture supernatant after 18 hours with peptide. Here is the method: (§1) For the assay, the human cells used were cultured at 1 million cells/ml in 96-well plates with the peptides in complete RPMI medium with 5% FBS. After culture for 18 hours at 37° C. and 5% CO2, the culture supernatants were measured for the cytokines generated by the cells with an Upstate multiplex cytokine kit.

The subject of experiment [2] is primary human peripheral blood mononuclear cells (hPBMC). Nature of the experiment: Cytokine production by primary hPBMC after peptide stimulation. The experiment is classed as cell-based. Here is the method:
The possible combinations of sequences included PDCGLR, PDCGLK, PDCGMR, and PDCGMK. […] Therefore, the specific peptide sequence PDCGLR, which was identified as a bacterial signature found commonly in bacterial proteins but not in Drosophila, is recognised by the human immune system as a PAMP.
as §1

The subject of experiment [3] is cells in vitro. To be noted: cited from earlier work.
The mark [4] stands for this setting: hPBMC #1643, culture supernatant after 18 hours with peptide.

Bounds are passed on as bounds.

Turning to PDCGLR, in experiment [1], the “Adjuvant activity, as measured by the specific production of cytokines (IL1-β, IL-8 and TNFα)” value is reported as “adjuvant activity was observed”; the “Cytokine production IL-1β” value is 11.32 pg/mL; the “Cytokine production IL-8” value is 171.11 pg/mL; the “Cytokine production TNF-α” value came out at 4.42 pg/mL. Besides, the “Cytokine production (IL-6 and TNFα)” value in experiment [2] (hPBMC) is “cytokine production (IL-6 and TNFα) was also demonstrated”. Moreover, in experiment [2] (setting [4]), the “Cytokine production IL-6” value was determined as 31.42 pg/mL and the “Cytokine production TNF-α” value was 3.6 pg/mL.

Regarding PDCGMR, in experiment [1], the “Cytokine production IL-1β” value came to 1.61 pg/mL, the “Cytokine production IL-8” value amounted to 25.71 pg/mL and the “Cytokine production TNF-α” value was less than 1 pg/mL.

On to PDCGMK, for which, in experiment [1], the “Cytokine production IL-1β” value was 1.59 pg/mL, the “Cytokine production IL-8” value was 19.28 pg/mL and the “Cytokine production TNF-α” value was less than 1 pg/mL.

Take PDCGLK: in experiment [1], the “Cytokine production IL-1β” value was found to be 1.33 pg/mL, the “Cytokine production IL-8” value came out at 24.29 pg/mL and the “Cytokine production TNF-α” value was less than 1 pg/mL.

With “ALTTE [5-mer peptide from a bacterial fimbriae protein]”, the “Induction of cytokine production from cells in vitro” value in experiment [3] is on record as “shown to induce cytokine production from cells in vitro”.
